Experiments:
Assay in all cases: relative viability (nuclei count vs DMSO), 5 days (fraction); higher = more cells survive
[1] = compound: CC1=NC=CC(=C1)C2=CC=C(C=C2)CC(=O)NC3=CC=C(C=C3)C4=CN=CC=C4 [Wnt-C59] + NC(=O)Nc1cc(-c2cccc(F)c2)sc1C(=O)N[C@H]1CCCNC1 [AZD7762] (partner 0.2 µM)
Method in brief: (§1)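 Nuclei were stained with Hoechst during a one-step fixation (final 0.05% Triton X-100, 1% formaldehyde, 1 ug/ml Hoechst) carried out 5 days after dosing, then counted on 4× images. The cells, lung cancer lines in 1536-well plates, had been dosed by pin tool the day after seeding with one drug alone or a fixed anchor-drug dose plus five library-drug doses (not always all listed) in √10 steps. Relative viability is the nuclei count in treated wells divided by that in vehicle wells, and each value is the median of duplicate plates.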

[2] = compound: CC1=NC=CC(=C1)C2=CC=C(C=C2)CC(=O)NC3=CC=C(C=C3)C4=CN=CC=C4 [Wnt-C59] + CS(=O)(=O)CCNCc1ccc(-c2ccc3ncnc(Nc4ccc(OCc5cccc(F)c5)c(Cl)c4)c3c2)o1 [Lapatinib] (partner 2 µM)
Method in brief: as §1

[3] = compound: CC1=NC=CC(=C1)C2=CC=C(C=C2)CC(=O)NC3=CC=C(C=C3)C4=CN=CC=C4 [Wnt-C59] + Nc1ncn([C@H]2C[C@H](O)[C@@H](CO)O2)c(=O)n1 [Decitabine] (partner 2 µM)
Method in brief: as §1

[4] = compound: CS(=O)(=O)CCNCc1ccc(-c2ccc3ncnc(Nc4ccc(OCc5cccc(F)c5)c(Cl)c4)c3c2)o1 [Lapatinib] + CC1(C)CCC(c2ccc(Cl)cc2)=C(CN2CCN(c3ccc(C(=O)NS(=O)(=O)c4ccc(N[C@H](CCN5CCOCC5)CSc5ccccc5)c(S(=O)(=O)C(F)(F)F)c4)cc3)CC2)C1 [Navitoclax] (partner 0.5 µM)
Method in brief: as §1

Row | Cell Line | relative viability ([1]; first compound 0.001 µM) | relative viability ([1]; first compound 0.01 µM) | relative viability ([1]; first compound 0.03162 µM) | relative viability ([1]; first compound 0.1 µM) | relative viability ([2]; first compound 0.001 µM) | relative viability ([2]; first compound 0.01 µM) | relative viability ([2]; first compound 0.03162 µM) | relative viability ([2]; first compound 0.1 µM) | relative viability ([3]; first compound 0.001 µM) | relative viability ([3]; first compound 0.01 µM) | relative viability ([3]; first compound 0.03162 µM) | relative viability ([3]; first compound 0.1 µM) | relative viability ([4]; first compound 0.02 µM) | relative viability ([4]; first compound 0.06325 µM) | relative viability ([4]; first compound 0.2 µM) | relative viability ([4]; first compound 0.6325 µM) | relative viability ([4]; first compound 2 µM)
1 | H3255 | 0.927 | 0.922 | 0.953 | 0.828 | 0.278 | 0.283 | 0.259 | 0.242 | 0.62 | 0.601 | 0.668 | 0.515 | 0.476 | 0.512 | 0.37 | 0.464 | 0.111
2 | NCI-H1792 | 0.659 | 0.676 | 0.701 | 0.854 | 0.866 | 0.982 | 0.991 | 0.913 | 0.636 | 0.524 | 0.536 | 0.506 | 0.615 | 0.589 | 0.52 | 0.586 | 0.645
3 | HCC-78 | 0.59 | 0.653 | 0.688 | 0.624 | 0.632 | 0.721 | 0.901 | 0.741 | 0.695 | 0.754 | 0.734 | 0.641 |  | 0.651 | 0.752 | 0.57 | 0.699
4 | HOP-62 | 0.403 | 0.598 | 0.769 | 0.478 | 0.907 | 0.996 | 1.04 | 1.03 | 0.19 | 0.238 | 0.227 | 0.231 | 0.672 | 0.993 | 1.09 | 1.1 | 0.99
5 | NCI-H1755 | 0.498 | 0.433 | 0.436 | 0.473 | 1.01 | 0.98 | 1.03 | 0.952 | 0.696 | 0.728 | 0.725 | 0.691 | 0.974 | 1.02 | 0.97 | 1.01 | 0.936
6 | NCI-H1651 | 0.502 | 0.394 | 0.551 | 0.459 | 0.838 | 0.821 | 0.737 | 0.783 | 0.671 | 0.675 | 0.613 | 0.597 | 1.05 | 0.968 | 0.971 | 0.899 | 0.906
7 | NCI-H2085 | 0.901 | 0.865 | 1.06 | 0.957 | 0.8 | 0.726 | 0.771 | 0.819 | 0.623 | 0.571 | 0.494 | 0.601 | 1.06 | 0.925 | 0.987 | 1.01 | 0.805
8 | EKVX | 0.871 |  | 0.689 | 0.651 | 0.244 | 0.183 | 0.151 | 0.206 | 0.313 |  | 0.417 | 0.374 | 0.859 | 0.916 | 0.809 | 0.77 | 0.199
